Measured values as given in ChEMBL document CHEMBL1147376, “Isolation and structure elucidation of 34-sulfatobastadin 13, an inhibitor of the endothelin A receptor, from a marine sponge of the genus Ianthella” (J Nat Prod, 1993).
≈ marks a conversion by molar mass, not a printed value. Calls of active or inactive are those of the source. No cut-off for these calls is given here.

Key:
[1] = molecular target: T1, Endothelin receptor type B (Rattus norvegicus) (UniProt P21451); experiment: Displacement of [125]ET3 from ETB receptor in Sprague-Dawley rat cerebellum at 70 uM
T1 sequence (whole entry): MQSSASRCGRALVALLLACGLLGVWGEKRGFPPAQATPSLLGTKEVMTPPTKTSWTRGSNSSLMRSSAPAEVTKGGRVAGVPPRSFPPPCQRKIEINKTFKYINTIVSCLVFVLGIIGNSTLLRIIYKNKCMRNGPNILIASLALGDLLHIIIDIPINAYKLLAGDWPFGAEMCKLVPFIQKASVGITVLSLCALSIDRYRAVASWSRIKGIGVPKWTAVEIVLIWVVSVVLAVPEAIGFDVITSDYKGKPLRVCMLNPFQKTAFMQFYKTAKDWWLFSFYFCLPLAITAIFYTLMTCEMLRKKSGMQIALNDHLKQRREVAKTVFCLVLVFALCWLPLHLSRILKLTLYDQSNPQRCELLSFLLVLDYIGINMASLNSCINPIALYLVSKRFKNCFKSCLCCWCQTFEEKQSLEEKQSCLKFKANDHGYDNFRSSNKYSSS

Bacillus subtilis [2] = experiment: Antibacterial activity against Bacillus subtilis ATCC 6633 after 18 to 24 hrs by twofold dilution test; format: functional
[3] = molecular target: T2, Endothelin-1 receptor (Sus scrofa) (UniProt Q29010); experiment: Displacement of [125]ET1 from ETA receptor in pig thoracic aorta at 70 uM; format: tissue-based
T2 sequence (whole entry): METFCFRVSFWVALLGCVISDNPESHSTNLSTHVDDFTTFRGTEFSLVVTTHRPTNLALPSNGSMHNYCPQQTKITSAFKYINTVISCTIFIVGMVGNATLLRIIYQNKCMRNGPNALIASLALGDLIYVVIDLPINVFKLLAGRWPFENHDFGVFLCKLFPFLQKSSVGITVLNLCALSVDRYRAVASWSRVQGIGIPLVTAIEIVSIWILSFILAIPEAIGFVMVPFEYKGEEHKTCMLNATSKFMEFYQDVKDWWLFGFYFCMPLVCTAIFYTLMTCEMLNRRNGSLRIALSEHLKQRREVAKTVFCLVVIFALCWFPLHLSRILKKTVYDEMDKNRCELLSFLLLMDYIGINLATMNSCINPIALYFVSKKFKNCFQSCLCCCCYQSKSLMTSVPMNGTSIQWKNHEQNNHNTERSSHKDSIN

Bacillus subtilis [4] = experiment: Antibacterial activity against Bacillus subtilis ATCC 6633 at 50 ug/mL after 18 to 24 hrs by twofold dilution test; format: functional, organism-based
Endothelin-1 receptor = molecular target: T3, Endothelin-1 receptor (Sus scrofa, UniProt Q29010); experiment: Displacement of [125]ET1 from ETA receptor in pig thoracic aorta
T3 sequence (Q29010 whole entry): T2 sequence (whole entry)

| inhibition [1] | MIC (Bacillus subtilis [2]) | inhibition [3] | IC50 (Endothelin-1 receptor) | SMILES | Activity (Bacillus subtilis [4]) |
| --- | --- | --- | --- | --- | --- |
| 30% | 6 µg/mL (≈ 6.38 µM) | 32% |  | O=C1NCCc2ccc(c(Br)c2)Oc2cc(ccc2O)CCNC(=O)/C(=N/O)Cc2cc(Br)c(O)c(c2)Oc2c(Br)cc(cc2Br)C/C1=N\O [BASTADIN 13] |  |
| 27% |  |  | 39 µM | O=C1NCCc2ccc(c(Br)c2)Oc2cc(ccc2O)CCNC(=O)/C(=N/O)Cc2cc(Br)c(OS(=O)(=O)O)c(c2)Oc2c(Br)cc(cc2Br)C/C1=N\O | inactive |
